The source of these data is ChEMBL document CHEMBL1148972, “Isomalabaricane-type compounds from the marine sponge Rhabdastrella aff. distincta” (J Nat Prod, 2004).

Common to all, as to assay type: functional, cell-based
One experiment concerns HL-60. Briefly: Cytotoxicity against human HL60 cells after 48 hrs by MTT assay. The following applies: HL-60, 48 h. (In general: Tetrazolium dyes change colour on reduction, which living cells bring about.)
A further experiment deals with HeLa. Briefly: Cytotoxicity against human HeLa cells after 48 hrs by MTT assay.
Experiment [1] in a line: Cytotoxicity against human PC-3MIE8 cells after 48 hrs by MTT assay. The following applies: PC-3MIE8, 48 h.
Experiment [2] can be described thus: Cytotoxicity against human […] cells after 48 hrs by MTT assay.
For a further experiment, the system named is Bel-7402. As to the kind of experiment: Cytotoxicity against human Bel7402 cells after 48 hrs by MTT assay. To be noted: Bel-7402, 48 h.
For another experiment, the system named is BGC-823. As to the kind of experiment: Cytotoxicity against human BGC823 cells after 48 hrs by MTT assay. To be noted: BGC-823, 48 h.

Molecules are shown by their SMILES. Values after ≈ are worked out from the molar mass of the structure shown.

What is called IC50 is the concentration that inhibits the measured activity by half. The low end stands for greater potency in that assay, the high end for weaker potency in that assay.

As for `CC(=O)/C=C\C(=O)/C(C)=C/C=C/C(C)=C1/C(=O)C[C@H]2[C@@]3(C)CCC(=O)C(C)(C)[C@@H]3CC[C@]12C`, the half-inhibitory concentration (IC50) (with HL-60; in the experiment with HeLa; in experiment [1]; in experiment [2]; with Bel-7402; in the experiment with BGC-823) was more than 5 µg/mL throughout.

Regarding `CC(=O)/C=C\C(=O)/C(C)=C/C=C/C(C)=C1\C(=O)C[C@H]2[C@@]3(C)CC[C@H](OC(C)=O)C(C)(C)[C@@H]3CC[C@]12C` [ISOGEODITIN B], the IC50 in the experiment with HL-60 is 0.5 µg/mL (≈ 1.01 µM); in the experiment on HeLa it was 3 µg/mL (≈ 6.06 µM); in experiment [1], 3.4 µg/mL (≈ 6.87 µM); in experiment [2], 2.2 µg/mL (≈ 4.45 µM); in the experiment on Bel-7402, 3.9 µg/mL (≈ 7.88 µM); in the experiment on BGC-823, 2.2 µg/mL (≈ 4.45 µM).

`CC(/C=C/C=C(\C)c1ccc(C)c(=O)o1)=C1/C(=O)C[C@H]2[C@@]3(C)CCC(=O)C(C)(C)[C@@H]3CC[C@]12C` [STELLETTIN B]: the IC50 was 0.2 µg/mL (≈ 0.432 µM) in the experiment on HL-60; more than 5 µg/mL with HeLa; more than 5 µg/mL in experiment [1]; more than 5 µg/mL in experiment [2]; more than 5 µg/mL in the experiment with Bel-7402; more than 5 µg/mL with BGC-823.

Consider `COC(=O)/C(C)=C/C=C/C(C)=C/C=C/C(C)=C1\C(=O)C[C@H]2[C@@]3(C)CCC(=O)C(C)(C)[C@@H]3CC[C@]12C` [STELLETTIN E METHYL ESTER], for which the IC50 in the experiment with HL-60 was 4.2 µg/mL (≈ 8.77 µM); with HeLa it was more than 5 µg/mL; in experiment [1], more than 5 µg/mL; in experiment [2], more than 5 µg/mL; in the experiment with Bel-7402, more than 5 µg/mL; with BGC-823, more than 5 µg/mL.

As to `COC(=O)/C(C)=C/C=C/C(C)=C/C=C/C(C)=C1/C(=O)C[C@H]2[C@@]3(C)CCC(=O)C(C)(C)[C@@H]3CC[C@]12C` [RHABDASTRELLIC ACID A METHYL ESTER], the IC50 (with HL-60; in the experiment with HeLa; in experiment [1]; in experiment [2]; with Bel-7402; in the experiment on BGC-823) was more than 5 µg/mL throughout.

With `CC(=O)/C=C/C(=O)/C(C)=C/C=C/C(C)=C1\C(=O)C[C@H]2[C@@]3(C)CCC(=O)C(C)(C)[C@@H]3CC[C@]12C` [GEODITIN A], the IC50 (in the experiment with HL-60; in the experiment with HeLa; in experiment [1]; in experiment [2]; in the experiment with Bel-7402; in the experiment with BGC-823) was more than 5 µg/mL each time.

For `CC(=O)O[C@H]1CC[C@@]2(C)[C@@H](CC[C@]3(C)\C(=C(C)/C=C/C=C(\C)c4ccc(C)c(=O)o4)C(=O)C[C@@H]23)C1(C)C` [STELLETTIN C], the IC50 is more than 5 µg/mL in the experiment with HL-60; more than 5 µg/mL with HeLa; 3.1 µg/mL (≈ 6.12 µM) in experiment [1]; more than 5 µg/mL in experiment [2]; more than 5 µg/mL in the experiment on Bel-7402; more than 5 µg/mL in the experiment with BGC-823.

For the molecule `CC(=O)/C=C\C(=O)/C(C)=C/C=C/C(C)=C1\C(=O)C[C@H]2[C@@]3(C)CCC(=O)C(C)(C)[C@@H]3CC[C@]12C` [ISOGEODITIN A], the concentration for half-maximal inhibition (IC50) in the experiment with HL-60 was 0.13 µg/mL (≈ 0.288 µM); with HeLa it was 0.35 µg/mL (≈ 0.777 µM); in experiment [1] it was 0.07 µg/mL (≈ 0.155 µM); in experiment [2] it was 1.2 µg/mL (≈ 2.66 µM); in the experiment on Bel-7402, 3.7 µg/mL (≈ 8.21 µM); in the experiment on BGC-823, 0.47 µg/mL (≈ 1.04 µM).

As for `COc1cc2c(c(OC)c1OC)-c1ccc(OC)c(=O)cc1[C@@H](NC(C)=O)CC2` [COLCHICINE], the IC50 with HL-60 was 1.6 µg/mL (≈ 4.01 µM); in the experiment with HeLa it was 0.1 µg/mL (≈ 0.25 µM); in experiment [1], 0.7 µg/mL (≈ 1.75 µM); in experiment [2], 0.2 µg/mL (≈ 0.501 µM); with Bel-7402, 0.3 µg/mL (≈ 0.751 µM); in the experiment on BGC-823, 0.6 µg/mL (≈ 1.5 µM).

Turning to `CC(/C=C/C=C(C)/C=C/C=C(\C)C(=O)O)=C1/C(=O)C[C@H]2[C@@]3(C)CCC(=O)C(C)(C)[C@@H]3CC[C@]12C` [STELLETIN E], the half-maximal inhibitory concentration (IC50) (with HL-60; in the experiment on HeLa; in experiment [1]; in experiment [2]; with Bel-7402; in the experiment with BGC-823) was more than 5 µg/mL throughout.

As to `CC1=CC[C@@H](/C(C)=C/C=C/C(C)=C2\C(=O)C[C@H]3[C@@]4(C)CCC(=O)C(C)(C)[C@@H]4CC[C@]23C)OC1=O` [22,23-DIHYDROSTELLETTIN B], the IC50 (with HL-60; with HeLa; in experiment [1]; in experiment [2]; with Bel-7402; in the experiment with BGC-823) was more than 5 µg/mL throughout.

On to `C\C(=C/C=C/C(C)=C1/C(=O)C[C@H]2[C@@]3(C)CCC(=O)C(C)(C)[C@@H]3CC[C@]12C)c1ccc(C)c(=O)o1` [STELLETIN A], for which the IC50 (in the experiment on HL-60; in the experiment with HeLa; in experiment [1]; in experiment [2]; with Bel-7402; with BGC-823) was more than 5 µg/mL throughout.

As for `CC(/C=C/C=C(\C)C(=O)O)=C\C=C\C(C)=C1\C(=O)C[C@H]2[C@@]3(C)CCC(=O)C(C)(C)[C@@H]3CC[C@]12C` [RHABDASTRELLIC ACID A], the concentration for half-maximal inhibition (IC50) (in the experiment on HL-60; in the experiment with HeLa; in experiment [1]; in experiment [2]; with Bel-7402; in the experiment with BGC-823) was more than 5 µg/mL each time.

For `CC(=O)/C=C/C(=O)/C(C)=C/C=C/C(C)=C1\C(=O)C[C@H]2[C@@]3(C)CC[C@H](OC(C)=O)C(C)(C)[C@@H]3CC[C@]12C` [GEODITIN B], the IC50 (in the experiment on HL-60; with HeLa; in experiment [1]; in experiment [2]; with Bel-7402; in the experiment with BGC-823) was more than 5 µg/mL throughout.
